Results as given in article PMC8037182, “Solvothermal Synthesis of Multiple Dihydropyrimidinones at a Time as Inhibitors of Eg5” (Molecules, 2021).

How the values were obtained:
Caco-2 cell line = assay: Cytotoxicity MTS assay, Caco-2 cell line; assay type: cell-based; conditions: for OD490 Mean / OD490 Well 1 / OD490 Well 2 / OD490 Well 3: Caco-2 cell line
Description: (§1) The positive compounds (IC50 < 100 μM) obtained from the primary Eg5 motor protein ATPase assay were tested for antiproliferative activity in vitro against Caco-2 cell line, Hela cell line, L929 cell line and T24 cell line by performing MTS assay. Cells were introduced into 96-well plates at a density of 1000 cells per well. After 24 h incubation, the cells were exposed with compounds at final concentrations ranging from 0.5 to 100 µM for 24 h. DMSO was used at a final concentration of 0.025% as blank control, monastrol was used as the positive control. Then 20 µL (CellTiter 96® AQueous One Solution Promega, Madison, WI, USA) reagent was added in each well. After 2 h at 37 °C in a 80% humidified, 5% CO2 atmosphere, the absorbance at 490 nm was recorded using a microplate reader (BIO-RAD iMark^TM). The results were obtained in three independent duplicate experiments. The primary data were shown in Supplementary Materials Tables S4–S7. The IC50 values for these compounds were calculated from a non-linear regression graph plotted between the percentage of cell viability and concentration with SPSS17.0 software.

T24 cell line = assay: Cytotoxicity MTS assay, T24 cell line; assay type: cell-based; conditions: for OD490 Mean / OD490 Well 1 / OD490 Well 2 / OD490 Well 3: T24 cell line
Description: as §1

## CCOC(=O)c1c(C2NC(=O)NC(C)=C2C(=O)Nc2ccccc2OC)[nH]c(C(=O)OC)c1C (centres unmarked) [D1]
Caco-2 cell line; 0.5μM, first assay
  OD490 Mean: 0.6107
  OD490 Well 1: 0.5649
  OD490 Well 2: 0.5391
  OD490 Well 3: 0.7282
Caco-2 cell line; 0.5μM, second assay
  OD490 Mean: 0.6066
  OD490 Well 1: 0.6391
  OD490 Well 2: 0.6324
  OD490 Well 3: 0.5484
Caco-2 cell line; 0.5μM, third assay
  OD490 Mean: 0.6142
  OD490 Well 1: 0.6774
  OD490 Well 2: 0.5749
  OD490 Well 3: 0.5903
Caco-2 cell line; 1μM, first assay
  OD490 Mean: 0.6086
  OD490 Well 1: 0.6046
  OD490 Well 2: 0.6209
  OD490 Well 3: 0.6002
Caco-2 cell line; 1μM, second assay
  OD490 Mean: 0.6031
  OD490 Well 1: 0.6102
  OD490 Well 2: 0.5846
  OD490 Well 3: 0.6145
Caco-2 cell line; 1μM, third assay
  OD490 Mean: 0.6182
  OD490 Well 1: 0.6046
  OD490 Well 2: 0.6112
  OD490 Well 3: 0.6387
Caco-2 cell line; 10μM, first assay
  OD490 Mean: 0.6584
  OD490 Well 1: 0.6611
  OD490 Well 2: 0.6501
  OD490 Well 3: 0.6639
Caco-2 cell line; 10μM, second assay
  OD490 Mean: 0.6246
  OD490 Well 1: 0.6493
  OD490 Well 2: 0.5502
  OD490 Well 3: 0.6742
Caco-2 cell line; 10μM, third assay
  OD490 Mean: 0.6177
  OD490 Well 1: 0.6611
  OD490 Well 2: 0.5578
  OD490 Well 3: 0.6341
Caco-2 cell line; 25μM, first assay
  OD490 Mean: 0.5948
  OD490 Well 1: 0.6149
  OD490 Well 2: 0.5791
  OD490 Well 3: 0.5903
Caco-2 cell line; 25μM, second assay
  OD490 Mean: 0.5865
  OD490 Well 1: 0.5801
  OD490 Well 2: 0.6127
  OD490 Well 3: 0.5666
Caco-2 cell line; 25μM, third assay
  OD490 Mean: 0.5866
  OD490 Well 1: 0.5903
  OD490 Well 2: 0.5721
  OD490 Well 3: 0.5974
Caco-2 cell line; 50μM, first assay
  OD490 Mean: 0.5045
  OD490 Well 1: 0.5048
  OD490 Well 2: 0.5114
  OD490 Well 3: 0.4972
Caco-2 cell line; 50μM, second assay
  OD490 Mean: 0.5178
  OD490 Well 1: 0.4983
  OD490 Well 2: 0.5020
  OD490 Well 3: 0.5531
Caco-2 cell line; 50μM, third assay
  OD490 Mean: 0.5361
  OD490 Well 1: 0.6048
  OD490 Well 2: 0.5048
  OD490 Well 3: 0.4988
Caco-2 cell line; 100μM, first assay
  OD490 Mean: 0.5483
  OD490 Well 1: 0.6273
  OD490 Well 2: 0.5214
  OD490 Well 3: 0.4962
Caco-2 cell line; 100μM, second assay
  OD490 Mean: 0.5031
  OD490 Well 1: 0.5662
  OD490 Well 2: 0.4999
  OD490 Well 3: 0.4431
Caco-2 cell line; 100μM, third assay
  OD490 Mean: 0.4792
  OD490 Well 1: 0.5214
  OD490 Well 2: 0.4347
  OD490 Well 3: 0.4814
Caco-2 cell line; MTS assay, 24 h exposure
  IC50: 108 µM
T24 cell line; MTS assay, 24 h exposure
  IC50: 130 µM
T24 cell line; 0.5μM, first assay
  OD490 Mean: 1.7953
  OD490 Well 1: 1.9580
  OD490 Well 2: 1.8859
  OD490 Well 3: 1.5421
T24 cell line; 0.5μM, second assay
  OD490 Mean: 1.6618
  OD490 Well 1: 1.6321
  OD490 Well 2: 1.6547
  OD490 Well 3: 1.6987
T24 cell line; 0.5μM, third assay
  OD490 Mean: 1.6883
  OD490 Well 1: 1.6325
  OD490 Well 2: 1.6625
  OD490 Well 3: 1.7698
T24 cell line; 1μM, first assay
  OD490 Mean: 1.8122
  OD490 Well 1: 1.9288
  OD490 Well 2: 1.8729
  OD490 Well 3: 1.6348
T24 cell line; 1μM, second assay
  OD490 Mean: 1.5761
  OD490 Well 1: 1.5621
  OD490 Well 2: 1.7412
  OD490 Well 3: 1.4251
T24 cell line; 1μM, third assay
  OD490 Mean: 1.7342
  OD490 Well 1: 1.7236
  OD490 Well 2: 1.7425
  OD490 Well 3: 1.7365
T24 cell line; 10μM, first assay
  OD490 Mean: 1.8792
  OD490 Well 1: 2.1723
  OD490 Well 2: 1.7790
  OD490 Well 3: 1.6864
T24 cell line; 10μM, second assay
  OD490 Mean: 1.7434
  OD490 Well 1: 1.9658
  OD490 Well 2: 1.6625
  OD490 Well 3: 1.6020
T24 cell line; 10μM, third assay
  OD490 Mean: 1.7548
  OD490 Well 1: 1.7768
  OD490 Well 2: 1.8524
  OD490 Well 3: 1.6352
T24 cell line; 25μM, first assay
  OD490 Mean: 1.7549
  OD490 Well 1: 1.8700
  OD490 Well 2: 1.7393
  OD490 Well 3: 1.6554
T24 cell line; 25μM, second assay
  OD490 Mean: 1.7221
  OD490 Well 1: 1.6685
  OD490 Well 2: 1.7236
  OD490 Well 3: 1.7741
T24 cell line; 25μM, third assay
  OD490 Mean: 1.8268
  OD490 Well 1: 1.7747
  OD490 Well 2: 1.7535
  OD490 Well 3: 1.9522
T24 cell line; 50μM, first assay
  OD490 Mean: 1.5187
  OD490 Well 1: 1.4408
  OD490 Well 2: 1.5156
  OD490 Well 3: 1.5997
T24 cell line; 50μM, second assay
  OD490 Mean: 1.5158
  OD490 Well 1: 1.5365
  OD490 Well 2: 1.5214
  OD490 Well 3: 1.4896
T24 cell line; 50μM, third assay
  OD490 Mean: 1.4458
  OD490 Well 1: 1.4214
  OD490 Well 2: 1.4823
  OD490 Well 3: 1.4336
T24 cell line; 100μM, first assay
  OD490 Mean: 1.4345
  OD490 Well 1: 1.4729
  OD490 Well 2: 1.3331
  OD490 Well 3: 1.4975
T24 cell line; 100μM, second assay
  OD490 Mean: 1.3859
  OD490 Well 1: 1.3654
  OD490 Well 2: 1.5687
  OD490 Well 3: 1.2235
T24 cell line; 100μM, third assay
  OD490 Mean: 1.3345
  OD490 Well 1: 1.3553
  OD490 Well 2: 1.4058
  OD490 Well 3: 1.2423
